In the experiment the target is nsp12 (Severe acute respiratory syndrome coronavirus 2, UniProt P0DTD1). Nature of the experiment: SPR binding to nsp12. Set-up: species or system SARS-CoV-2.

`CC1(C)[C@@H](O)CC[C@]2(C)[C@H]3C(=O)C=C4[C@@H]5C[C@@](C)(C(=O)O)CC[C@]5(C)CC[C@@]4(C)[C@]3(C)CC[C@@H]12` [GA, glycyrrhetinic acid] registered a dissociation constant Kd of 416 µM.

As a reminder, the Kd is the free concentration of one partner at which half of the binding sites on the other are occupied at equilibrium, for simple one-to-one binding. High values mean a looser complex, low ones a tighter complex.
